Measured values from patent US9913812B2, “Methods for the treatment of skin neoplasms” (TEIKOKU PHARMA USA, INC., priority 2011, dated 2018).
Entries after “also recorded” stand apart in the source; their conditions may differ. Where two headings read alike, the source gives them in different places.

Tests used:
[1] = Body weights of tumor-bearing mice during treatment; assay type: in vivo; conditions: for Difference in body weight (BW), Vehicle vs. Rasagiline PO / Difference in percent change in body weight (% BW), Vehicle vs. Rasagiline PO: 15 mg/kg PO daily
Description: Body weights were measured prior to dosing and every three days concurrent with tumor measurements for both patch removal/application and oral dosing. Body weights were transformed into percent change in body weight using the formula: […] […] Cisplatin was administered once-weekly via intraperitoneal injection.

[2] = Survival / mortality of tumor-bearing mice during treatment; assay type: in vivo
Description: The percentage of animal mortality and time of death was recorded for every group in the study. Animals were defined as moribund and euthanized if one or more of the following criteria were met: prolonged or excessive pain or distress as defined by clinical observations such as: prostration, hunched posture, paralysis/paresis, distended abdomen, ulcerations, abscesses, seizures and/or hemorrhages; loss of more than 20% of their body weight; if the tumor volumes exceeded 2,000 mm^3 or the tumors ulcerated, bled or produced exudates.
Survival of the animals was recorded for the entire experiment. If an animal died or was euthanized due to morbidity during the experiment, its day of death was designated as “1”. If an animal survived the entire time course of the experiment, the last day of observation was designated as a “0”. Survival data was analyzed using a Kaplan-Meier Survival analysis and survival curves were compared using a Log-rank test. P values less than 0.05 were considered significant.

[3] = test system: SKMEL28 human melanoma cell line; test: SKMEL28 melanoma xenograft tumor volume / growth in athymic mice; conditions: for tumor growth rates (in words) / tumor volume / tumor growth on the last day of the experiment (in words): compared to the no treatment group
Description: The SKMEL28 human melanoma cell line was obtained from ATCC and grown according to the vendor's instructions until a log growth phase was obtained. The cells were harvested from the culture vessel, washed once and re-suspended in serum free medium and matrigel mixed at a 1:1 ratio.
Female athymic (nu/nu) mice were used for in vivo animal studies. The mice were 7-8 weeks old at the time of tumor implantation. Six groups of mice were included in the study, with 10 animals in each group.
Mice were inoculated subcutaneously in the scapular area in a volume of 0.2 mL containing ˜10×10^6 SKMEL28 cells.
Tumor dimensions were measured twice a week with digital calipers and tumor volumes were calculated from the dimensions with the formula: Tumor Volume (m)=(a^2×b/2); where “a” was the smallest dimension and “b” was the largest dimension. […] Test article treatment was initiated on the same day as assignment to treatment groups. Tumor dimensions were measured and tumor volumes calculated every three days (at the same time as patch removal and application) for 21 days. Tumor volumes were also transformed into percent change in tumor volume using the formula: Percent Change TV=(TVi−TVo)/TVo×100%; where TV was tumor volume, TVi was the tumor volume at the measurement time and TVo was the initial tumor volume. Differences between treatment groups for both the raw tumor volumes and percent changes in tumor volume versus time data sets were evaluated with Two-way ANOVAs. Pair-wise differences between the no treatment and test article treatment groups on each measurement day were evaluated with post hoc Bonferroni's T-tests. In order to evaluate the growth rates of the tumors between treatments, straight lines were fitted through the different data sets (percent change in tumor volumes versus time) by least squares regression. Slopes of the lines were compared initially between all groups and then in a pair-wise fashion between the “no treatment” and “test article” treated groups using an F-test. In all cases, P values less than 0.05 were considered significant.
Test article administrations were initiated on the same day as treatment group assignments and according to the Experimental Grouping Table. Rasagiline administration consisted of either oral gavage (15 mg/kg PO, daily for 21 days) or topical transdermal patch treatment. Cisplatin was administered once-weekly via intraperitoneal injection. Transdermal patches were applied to the intrascapular (i.e., directly over the tumor) and chest areas and maintained in position with a single BandAid™. Fresh patches were applied to the same locations every third day. The skin was cleaned prior to the first patch application with clorehexadene and as necessary prior to repeat applications. […] Mice were conscious and lightly restrained for patch removal and application. The patches were 0.75 or 1.2 in^2.

in vivo = conditions: athymic nude, mouse, po, 15 mg/kg
Description: At the end of the 21-day treatment duration, 2 animals from each group were euthanized at each of the following time points by isoflurane inhalation (0.5, 1, 2, 4, 8, and 24 hours after the last administration of the test articles including the application of fresh transdermal patches). For the 15 mg/kg PO Rasagiline group, two mice were bled twice (cheek bleed and terminal cardiac) so that ten mice could supply blood samples for six time points. Blood samples were collected from these animals via cardiac puncture into blood collection tubes containing lithium heparin. The blood samples were processed within 30 minutes of collection by centrifugation to prepare plasma samples. The plasma was separated from the cellular fraction and frozen on dry ice. Plasma samples were stored at −80° C. until they were shipped to an analytical laboratory designated by the Sponsor.
To compare rasagiline exposure by both dosing routes, blood was collected from two animals at each time point by sparse sampling techniques via cardiocentesis prior to euthanasia. Two samples were collected each from two animals in the oral dose group by collecting the first sample from the submandibular vein at 0.25 hours and cardiocentesis at eight hours. Blood was collected from animals administered oral rasagiline at 0.25, 0.5, 1, 2, 4 and 8 hours after the last oral dose. Animals administered the transdermal patches had blood collected at 0.5, 1, 2, 4, and 24 hours on the last application day. Blood collected from animals in the naïve, vehicle, and placebo patch groups determined baseline values and were used for pre-dose levels. […] Mean values for each time point within the rasagiline groups were used to calculate the mean AUC(0-t) value. The AUC(0-8) derived for the oral rasagiline group was multiplied by three to estimate the AUC(0-24) exposure. The ratio of AUC(0-24) for each of the baseline transdermal groups was divided by the estimated oral AUC(0-24) to compare exposures between the two dosing routes.

[4] = oral administration (0.45 mg/kg), cited from earlier work
[5] = oral gavage 15 mg/kg, listed as rasagiline mesylate, 15 mg/kg
[6] = oral gavage 15 mg/kg, listed as rasagiline, 15 mg/kg

For N.N.[Cl][Pt][Cl] [Cisplatin], the “body weight loss (in words)” value ([1]; 10 mg/kg IP, versus any other treatment group) was “greater body weight loss”, the “survival versus No Treatment group (Logrank test; in words)” value ([2]; 10 mg/kg IP every 7 days) was “Yes” and the animals that died ([2]; 10 mg/kg IP every 7 days, group of 10, deaths on Days 13-17) was 7 out of the 10. For the same compound, the “SLOPE, best-fit value of linear fit to percent changes in tumor volume versus time” value ([3]; 10 mg/kg IP every 7 days) was 13.16, the “tumor growth rates (in words)” value ([3]; 10 mg/kg IP) was “significantly slowed; also recorded: significantly reduced tumor growth rates” and the “reduction in the percent change in tumor volumes” value ([3]; 10 mg/kg IP, compared to the oral vehicle treatment, prior to death of the majority of the animals) was 49%.

For C#CCNC1CCc2ccccc21 (stereo not shown) [Rasagiline, N-propargyl-1-aminoindan], the “Difference in body weight (BW), Vehicle vs. Rasagiline PO” value (“Difference in body weight (BW)” for short) ([1]; Day 1) was 0.4100, the “Difference in percent change in body weight (% BW), Vehicle vs. Rasagiline PO” value ([1]; Day 1) was 0.0000% and the “Difference in body weight (BW)” value ([1]; Day 4) was −0.1100. For the same compound, the “Difference in percent change in body weight (% BW), Vehicle vs. Rasagiline PO” value ([1]; Day 4) was −2.229%, the “Difference in body weight (BW)” value ([1]; Day 7) was 0.2200 and the “Difference in percent change in body weight (% BW), Vehicle vs. Rasagiline PO” value ([1]; Day 7) was −0.7052%. For the same compound, the “Difference in body weight (BW)” value ([1]; Day 10) was 0.3400, the “Difference in percent change in body weight (% BW), Vehicle vs. Rasagiline PO” value ([1]; Day 10) was −0.2490% and the “Difference in body weight (BW)” value ([1]; Day 13) was 0.1700. For the same compound, the “Difference in percent change in body weight (% BW), Vehicle vs. Rasagiline PO” value ([1]; Day 13) was −1.053%, the “Difference in body weight (BW)” value ([1]; Day 16) was 0.2800 and the “Difference in percent change in body weight (% BW), Vehicle vs. Rasagiline PO” value ([1]; Day 16) was −0.4240%. The “Difference in body weight (BW)” value ([1]; Day 22) was −0.5500, the “Difference in percent change in body weight (% BW), Vehicle vs. Rasagiline PO” value ([1]; Day 22) was −4.072% and the “percent change in body weight (in words)” value ([1]; oral 15 mg/kg daily, compared with the no treatment group, 15 mg/kg) was “steadily reduced body weight from day 13 onwards”. The “survival (in words)” value ([2]; orally or transdermally, 21 days) was “survived to the end of the study; also recorded: survived the dosing period”, the Cmax (in vivo) was 899 ng/mL and the Tmax (in vivo) was 15 min. It also gave a concentration at 0.25 h (in vivo) of 899 ng/mL, a concentration at 0.5 h (in vivo) of 370 ng/mL and a concentration at 1 h (in vivo) of 216 ng/mL. For the same compound, the concentration at 2 h (in vivo) was 82.5 ng/mL, the concentration at 4 h (in vivo) was 28.4 ng/mL and the concentration at 8 h (in vivo) was 19.9 ng/mL. The “time of mean maximal plasma concentration” value (in vivo) was 15 min, the AUC(0-t) (in vivo; Mean AUC(0-24)) was 774 ng·h/mL and the AUC(0-t) (in vivo; estimated exposure after 24 hours (AUC(0-8) multiplied by three)) was 2320 ng·h/mL. The “Maximum % of dose” value ([4]; Fat) was 8.47 % of dose, the “Time to maximal exposure” value ([4]; Fat) was 0.25 and the “Maximum % of dose” value ([4]; Kidneys) was 3.89 % of dose. For the same compound, the “Time to maximal exposure” value ([4]; Kidneys) was 0.25, the “Maximum % of dose” value ([4]; Large intestine) was 1.83 % of dose and the “Time to maximal exposure” value ([4]; Large intestine) was 1. For the same compound, the “Maximum % of dose” value ([4]; Liver) was 13.20 % of dose, the “Time to maximal exposure” value ([4]; Liver) was 0.25 and the “Maximum % of dose” value ([4]; Lung) was 1.46 % of dose. The “Time to maximal exposure” value ([4]; Lung) was 0.25, the “Maximum % of dose” value ([4]; Muscle) was 24.11 % of dose and the “Time to maximal exposure” value ([4]; Muscle) was 0.25. The “Maximum % of dose” value ([4]; Skin) was 13.20 % of dose, the “Time to maximal exposure” value ([4]; Skin) was 0.25 and the “Maximum % of dose” value ([4]; Small intestine) was 8.76 % of dose. For the same compound, the “Time to maximal exposure” value ([4]; Small intestine) was 0.25, the “Maximum % of dose” value ([4]; Stomach) was 4.73 % of dose and the “Time to maximal exposure” value ([4]; Stomach) was 0.5. For the same compound, the “Maximum % of dose” value ([4]; Whole Blood) was 4.54 % of dose, the “Time to maximal exposure” value ([4]; Whole Blood) was 0.25 and the “SLOPE, best-fit value of linear fit to percent changes in tumor volume versus time” value ([3]; 15 mg/kg PO daily, 21 days) was 26.64. For the same compound, the “Difference in percent change in tumor volume (% TV), Vehicle vs. Rasagiline 15 mg/kg PO” value ([3]; Day 1, 15 mg/kg PO daily) was 0.0000%, the “Difference in tumor volume (TV), Vehicle vs. Rasagiline (15 mg/kg PO)” value (“Difference in tumor volume (TV)” for short) ([3]; Day 1, 15 mg/kg PO daily) was −0.2606 and the “Difference in percent change in tumor volume (% TV), Vehicle vs. Rasagiline 15 mg/kg PO” value ([3]; Day 4, 15 mg/kg PO daily) was −12.56%. For the same compound, the “Difference in tumor volume (TV)” value ([3]; Day 4, 15 mg/kg PO daily) was −15.03, the “Difference in percent change in tumor volume (% TV), Vehicle vs. Rasagiline 15 mg/kg PO” value ([3]; Day 7, 15 mg/kg PO daily) was −36.19% and the “Difference in tumor volume (TV)” value ([3]; Day 7, 15 mg/kg PO daily) was −40.95. The “Difference in percent change in tumor volume (% TV), Vehicle vs. Rasagiline 15 mg/kg PO” value ([3]; Day 10, 15 mg/kg PO daily) was −42.92%, the “Difference in tumor volume (TV)” value ([3]; Day 10, 15 mg/kg PO daily) was −50.83 and the “Difference in percent change in tumor volume (% TV), Vehicle vs. Rasagiline 15 mg/kg PO” value ([3]; Day 13, 15 mg/kg PO daily) was −71.82%. For the same compound, the “Difference in tumor volume (TV)” value ([3]; Day 13, 15 mg/kg PO daily) was −92.36, the “Difference in percent change in tumor volume (% TV), Vehicle vs. Rasagiline 15 mg/kg PO” value ([3]; Day 16, 15 mg/kg PO daily) was −98.35% and the “Difference in tumor volume (TV)” value ([3]; Day 16, 15 mg/kg PO daily) was −128.8. The “Difference in percent change in tumor volume (% TV), Vehicle vs. Rasagiline 15 mg/kg PO” value ([3]; Day 22, 15 mg/kg PO daily) was −153.3%, the “Difference in tumor volume (TV)” value ([3]; Day 22, 15 mg/kg PO daily) was −154.4 and the “tumor volume / tumor growth on the last day of the experiment (in words)” value (“tumor volume / tumor growth” below) ([3]; oral gavage 15 mg/kg, 15 mg/kg) was “significantly reduced tumor volume”. The “tumor growth rates (in words)” value [3, 5] was “significantly reduced absolute tumor volumes as well as tumor growth rates”, the “tumor volume / tumor growth” value [3, 5] was “significantly reduced absolute tumor volumes” and the “tumor growth rates (in words)” value [3, 6] was “significantly slowed; also recorded: significantly reduced tumor growth rates”. The “tumor volume / tumor growth” value [3, 6] was “significant reductions in tumor growth”, the “reduction in percent change in tumor volume” value ([3]; oral gavage 15 mg/kg, compared to the oral vehicle control) was 22% and the “tumor growth rates (in words)” value ([3]; transdermal patch) was “significantly reduced absolute tumor volumes as well as tumor growth rates”. For the same compound, the “tumor volume / tumor growth” value ([3]; transdermal patch) was “significantly reduced absolute tumor volumes”.
